Values quoted from earlier work in publication PMC8480901 (PLoS ONE, 2021).

Tested on: LPS-induced acute lung injury
Details: pretreated mice vs no-treatment control group; cited from earlier work

C[C@@H]1C[C@H]2[C@@H]3CCC4=CC(=O)C=C[C@]4(C)[C@@]3(F)[C@@H](O)C[C@]2(C)[C@@]1(O)C(=O)CO [Dexamethasone]
LPS-induced pulmonary edema, accumulation of inflammatory cells in BALF, and increased inflammatory cytokines (eg, TNF-α and IL-6): significantly attenuated
